Broadly, the IC50 is the point on the concentration scale where inhibition reaches its midpoint.

Each structure is given as a SMILES string. Calls of active or inactive are those of the source. No rule for the calls is given here.

The target in this test is 3C-like protease (Infectious bronchitis virus, as filed; assay for SARS-CoV 3CLpro). Briefly: SARS 3CLpro protease inhibition IC50 – biochemical, fluorescence, dose response, late-stage follow-up (AID 488958). As to conditions: recombinant 3CLpro, fluorogenic peptide cleavage.
For the compound `CC(=O)Nc1ccc(N(C(=O)Cn2nnc3ccccc32)C(C(=O)NCc2ccccc2)c2cccc(F)c2)cc1` (stereo unspecified), the IC50 was 2.9 µM.
To `CC(C)(C)NC(=O)C(c1cncnc1)N(C(=O)c1cnc[nH]1)c1ccc(C(C)(C)C)cc1` (stereo unspecified) belongs “inactive”; to `CC(C)(C)NC(=O)C(c1cccnc1)N(C(=O)c1ncco1)c1ccc(C(C)(C)C)cc1` (stereo unspecified), “inactive”.
In the case of `CC(C)(C)NC(=O)C(c1cccnc1)N(C(=O)c1ccc(Cl)o1)c1ccc(C(C)(C)C)cc1` (stereo unspecified) it was 5.2 µM; in that of `CC(=O)Nc1ccc(N(C(=O)Cn2nnc3ccccc32)C(C(=O)NC(C)(C)C)c2cccc(F)c2)cc1` (stereo unspecified), 6.3 µM; in that of `CCC(C)c1ccc(N(C(=O)c2ccco2)[C@H](C(=O)NC(C)(C)C)c2cccnc2)cc1` (stereo partly specified), 2.3 µM.

(Values after PubChem BioAssay AID488958 (The Scripps Research Institute Molecular Screening Center, 2010).)
